Patent publication US9765092B2, “Tricyclic piperidine compounds” (ACTELION PHARMACEUTICALS LTD, priority 2013, dated 2017)

target: human TPH1 (Homo sapiens (Human), UniProt P17752); experiment: Biochemical in vitro assay using fluorescence readout (TPH1 inhibition); conditions: full length human TPH1, 40 μM L-tryptophan, 15° C., 60 minutes, fluorescence at 540 nm; mean if determined several times
Sequence (P17752 whole entry): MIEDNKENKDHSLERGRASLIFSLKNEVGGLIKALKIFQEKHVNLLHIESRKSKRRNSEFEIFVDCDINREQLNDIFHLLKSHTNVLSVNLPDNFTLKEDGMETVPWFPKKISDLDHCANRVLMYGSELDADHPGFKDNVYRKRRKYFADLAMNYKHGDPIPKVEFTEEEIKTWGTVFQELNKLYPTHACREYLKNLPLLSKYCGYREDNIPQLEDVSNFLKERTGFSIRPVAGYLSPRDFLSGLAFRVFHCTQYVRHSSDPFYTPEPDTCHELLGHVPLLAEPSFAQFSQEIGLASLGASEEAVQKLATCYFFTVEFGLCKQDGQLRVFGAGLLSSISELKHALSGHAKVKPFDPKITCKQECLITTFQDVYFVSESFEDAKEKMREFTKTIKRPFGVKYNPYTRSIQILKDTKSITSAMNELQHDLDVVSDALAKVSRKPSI

`Cc1nn2c3c(nc2s1)CCN(C(=O)COc1ccc(C2CC2)nc1Cl)C3c1ccc(Cl)cc1F` (centres unmarked) [Example 1.4.28, 1-(5-(4-Chloro-2-fluorophenyl)-2-methyl-7,8-dihydro-[1,3,4]thiadiazolo[2′,3′:2,3]imidazo[4,5-c]pyridin-6(5H)-yl)-2-((2-chloro-6-cyclopropylpyridin-3-yl)oxy)-ethanone] gave an IC50 of 6 nM.

same assay, conditions: human TPH1, fluorescence readout

In order of falling IC50:
1. CCc1ncccc1OCC(=O)N1CCc2nc3sc(C)nn3c2C1c1ccc(C2CC2)cc1F (centres unmarked) [Example 1.6.9, 1-(5-(4-cyclopropyl-2-fluorophenyl)-2-methyl-7,8-dihydro-[1,3,4]thiadiazolo[2′,3′:2,3]imidazo[4,5-c]pyridin-6(5H)-yl)-2-((2-ethylpyridin-3-yl)oxy)ethanone]  457 nM
2. Cc1nn2c3c(nc2s1)CCN(C(=O)COc1cccnc1Cl)C3c1cnc(N2CCOCC2)s1 (centres unmarked) [Example 1.7.3, 2-((2-chloropyridin-3-yl)oxy)-1-(2-methyl-5-(2-morpholinothiazol-5-yl)-7,8-dihydro-[1,3,4]thiadiazolo [2′,3′:2,3]imidazo[4,5-c]pyridin-6(5H)-yl)ethanone]  338 nM
3. Cc1nn2c3c(nc2s1)CCN(C(=O)COc1cccnc1F)C3c1ccc(C2CC2)cc1F (centres unmarked) [Example 1.6.5, 1-(5-(4-cyclopropyl-2-fluorophenyl)-2-methyl-7,8-dihydro-[1,3,4]thiadiazolo[2′,3′:2,3]imidazo[4,5-c]pyridin-6(5H)-yl)-2-((2-fluoropyridin-3-yl)oxy)ethanone]  89 nM
4. Cc1nn2c3c(nc2s1)CCN(C(=O)COc1ccc(C#N)cc1Cl)C3c1scnc1C (centres unmarked) [Example 1.32.2, 3-chloro-4-(2-(2-methyl-5-(4-methylthiazol-5-yl)-7,8-dihydro-[1,3,4]thiadiazolo[2′,3′:2,3]imidazo[4,5-c]pyridin-6(5H)-yl)-2-oxoethoxy)benzonitrile]  83 nM
5. O=C(COc1ccc(CN2CCOCC2)nc1Cl)N1CCc2nc3sccn3c2C1c1nc2ccccc2s1 (centres unmarked) [Example 6.12.8, 1-(5-(benzo[d]thiazol-2-yl)-7,8-dihydrothiazolo-[2′,3′:2,3]imidazo[4,5-c]pyridin-6(5H)-yl)-2-((2-chloro-6-(morpholinomethyl)pyridin-3-yl)oxy)ethanone]  43 nM
6. CCn1nc(C(=O)OC)cc1OCC(=O)N1CCc2nc3sc(C)nn3c2C1c1ccc(Cl)cc1F (centres unmarked) [Example 1.4.31, Methyl 5-(2-(5-(4-chloro-2-fluorophenyl)-2-methyl-7,8-dihydro-[1,3,4]thiadiazolo[2′,3′:2,3]imidazo[4,5-c]pyridin-6(5H)-yl)-2-oxoethoxy)-1-ethyl-1H-pyrazole-3-carboxylate]  40 nM
7. Cc1nn2c3c(nc2s1)CCN(C(=O)COc1ccc(C(=O)NC2CC2)nc1Cl)C3c1ccc(OC(F)(F)F)cc1F (centres unmarked) [Example 1.77.2, 6-chloro-N-cyclopropyl-5-(2-(5-(2-fluoro-4-(trifluoromethoxy)phenyl)-2-methyl-7,8-dihydro-[1,3,4]thiadiazolo[2′,3′:2,3]imidazo[4,5-c]pyridin-6(5H)-yl)-2-oxoethoxy)picolinamide]  28 nM
8. Cc1nn2c3c(nc2s1)CCN(C(=O)COc1ccc(C(F)(F)F)nc1Cl)C3c1ccc(Cl)nc1F (centres unmarked) [Example 1.16.4, 1-(5-(6-chloro-2-fluoropyridin-3-yl)-2-methyl-7,8-dihydro-[1,3,4]thiadiazolo[2′,3′:2,3]imidazo[4,5-c]pyridin-6(5H)-yl)-2-((2-chloro-6-(trifluoromethyl)pyridin-3-yl)oxy)ethanone]  27 nM
9. Cc1cc(Cl)ccc1OCC(=O)N1CCc2nc3sccn3c2C1c1cnn(-c2ccccc2)c1 (centres unmarked) [Example 6.13.7, 2-(4-chloro-2-methylphenoxy)-1-(5-(1-phenyl-1H-pyrazol-4-yl)-7,8-dihydrothiazolo[2′,3′:2,3]imidazo[4,5-c]pyridin-6(5H)-yl)ethanone]  26 nM
10. N#Cc1ccc(OCC(=O)N2CCc3nc4sc(C5CC5)nn4c3C2c2ccc(Cl)cc2F)c(Cl)c1 (centres unmarked) [Example 4.1.2, 3-chloro-4-(2-(5-(4-chloro-2-fluorophenyl)-2-cyclopropyl-7,8-dihydro-[1,3,4]thiadiazolo-[2′,3′:2,3]imidazo[4,5-c]pyridin-6(5H)-yl)-2-oxoethoxy)benzonitrile]  23 nM
11. Cc1nn2c3c(nc2s1)CCN(C(=O)COc1ccc(N2CCOCC2)nc1Cl)C3c1cc(CN(C)C)cs1 (centres unmarked) [Example 1.8.1, 2-((2-chloro-6-morpholinopyridin-3-yl)oxy)-1-(5-(4-((dimethylamino)methyl)thiophen-2-yl)-2-methyl-7,8-dihydro-[1,3,4]thiadiazolo[2′,3′:2,3]imidazo[4,5-c]pyridin-6(5H)-yl)ethanone]  18 nM
12. COC(=O)c1ccc(C2c3c(nc4sc(C)nn34)CCN2C(=O)COc2ccc(NS(C)(=O)=O)nc2Cl)c(F)c1 (centres unmarked) [Example 1.79.1, methyl-4-(6-(2-((2-chloro-6-(methylsulfonamido)pyridin-3-yl)oxy)acetyl)-2-methyl-5,6,7,8-tetrahydro-[1,3,4]thiadiazolo[2′,3′:2,3]imidazo[4,5-c]pyridin-5-yl)-3-fluorobenzoate]  17 nM
13. Cc1nn2c3c(nc2s1)CCN(C(=O)COc1ccc(C(=O)N(C)C)nc1Cl)C3c1ccc(C(F)(F)F)cc1F (centres unmarked) [Example 1.56.1, 6-chloro-5-(2-(5-(2-fluoro-4-(trifluoromethyl)phenyl)-2-methyl-7,8-dihydro-[1,3,4]thiadiazolo[2′,3′:2,3]imidazo[4,5-c]pyridin-6(5H)-yl)-2-oxoethoxy)-N,N-dimethylpicolinamide]  15 nM
14. O=C(COc1ccc(-c2ncco2)nc1Cl)N1CCc2nc3sc(C4CC4)nn3c2C1c1ccc(Cl)cc1F (centres unmarked) [Example 4.1.3, 1-(5-(4-chloro-2-fluorophenyl)-2-cyclopropyl-7,8-dihydro-[1,3,4]thiadiazolo[2′,3′:2,3]imidazo[4,5-c]pyridin-6(5H)-yl)-2-((2-chloro-6-(oxazol-2-yl)pyridin-3-yl)oxy)ethanone]  13 nM
15. CCc1nc(NS(C)(=O)=O)ccc1OCC(=O)N1CCc2nc3sc(C)nn3c2C1c1sc(C)nc1C (centres unmarked) [Example 1.68.7, N-(5-(2-(5-(2,4-dimethylthiazol-5-yl)-2-methyl-7,8-dihydro-[1,3,4]thiadiazolo[2′,3′:2,3]imidazo[4,5-c]-pyridin-6(5H)-yl)-2-oxoethoxy)-6-ethylpyridin-2-yl)methanesulfonamide]  11 nM
16. Cc1nn2c3c(nc2s1)CCN(C(=O)COc1ccc(C#N)cc1Cl)C3c1ccc(Cl)cc1F (centres unmarked) [Example 1.4.24, 3-chloro-4-(2-(5-(4-chloro-2-fluorophenyl)-2-methyl-7,8-dihydro-[1,3,4]thiadiazolo[2′,3′:2,3]imidazo[4,5-c]pyridin-6(5H)-yl)-2-oxoethoxy)benzonitrile]  11 nM
17. CNC(=O)c1cc(F)c(C2c3c(nc4sc(C)nn34)CCN2C(=O)COc2ccc(C(F)(F)F)cc2Cl)s1 (centres unmarked) [Example 1.25.2, 5-(6-(2-(2-chloro-4-(trifluoromethyl)phenoxy)acetyl)-2-methyl-5,6,7,8-tetrahydro-[1,3,4]thiadiazolo[2′,3′:2,3]imidazo[4,5-c]pyridin-5-yl)-4-fluoro-N-methylthiophene-2-carboxamide]  10 nM
18. CNC(=O)c1ccc(OCC(=O)N2CCc3nc4sc(C)nn4c3C2c2sccc2F)c(Cl)n1 (centres unmarked) [Example 1.23.10, 6-chloro-5-(2-(5-(3-fluorothiophen-2-yl)-2-methyl-7,8-dihydro-[1,3,4]thiadiazolo[2′,3′:2,3]imidazo[4,5-c]pyridin-6(5H)-yl)-2-oxoethoxy)-N-methylpicolinamide]  9 nM
19. Cc1nn2c3c(nc2s1)CCN(C(=O)COc1ccc(C(F)(F)F)cc1Cl)C3c1sc(C(=O)N(C)C)cc1F (centres unmarked) [Example 1.24.3, 5-(6-(2-(2-chloro-4-(trifluoromethyl)phenoxy)acetyl)-2-methyl-5,6,7,8-tetrahydro-[1,3,4]thiadiazolo[2′,3′:2,3]imidazo[4,5-c]pyridin-5-yl)-4-fluoro-N,N-dimethylthiophene-2-carboxamide]  8 nM
20. CCc1cc(F)ccc1OCC(=O)N1CCc2nc3sccn3c2C1c1ccc(OC)cc1F (centres unmarked) [Example 6.3.4, 2-(2-ethyl-4-fluorophenoxy)-1-(5-(2-fluoro-4-methoxyphenyl)-7,8-dihydrothiazolo[2′,3′:2,3]-imidazo[4,5-c]pyridin-6(5H)-yl)ethanone]  8 nM
21. Cc1nn2c3c(nc2s1)CCN(C(=O)COc1ccc(C(=O)N(C)C)nc1Cl)C3c1ccc(C)c(F)c1F (centres unmarked) [Example 1.61.1, 6-chloro-5-(2-(5-(2,3-difluoro-4-methylphenyl)-2-methyl-7,8-dihydro-[1,3,4]thiadiazolo[2′,3′:2,3]imidazo[4,5-c]pyridin-6(5H)-yl)-2-oxoethoxy)-N,N-dimethylpicolinamide]  7 nM
22. CNC(=O)c1ccc(OCC(=O)N2CCc3nc4sc(C)nn4c3C2c2ncc(C)cc2F)c(Cl)n1 (centres unmarked) [Example 1.31.6, 6-chloro-5-(2-(5-(3-fluoro-5-methylpyridin-2-yl)-2-methyl-7,8-dihydro-[1,3,4]thiadiazolo[2′,3′:2,3]imidazo[4,5-c]pyridin-6(5H)-yl)-2-oxoethoxy)-N-methylpicolinamide]  7 nM
23. CCOC(=O)c1csc(C2c3c(nc4sc(C)nn34)CCN2C(=O)COc2ccc(N3CCOCC3)nc2Cl)n1 (centres unmarked) [Example 1.27.1, ethyl 2-(6-(2-((2-chloro-6-morpholinopyridin-3-yl)oxy)acetyl)-2-methyl-5,6,7,8-tetrahydro-[1,3,4]thiadiazolo[2′,3′:2,3]imidazo[4,5-c]pyridin-5-yl)thiazole-4-carboxylate]  7 nM
24. Cc1nn2c3c(nc2s1)CCN(C(=O)COc1ccc(N2CC(F)(F)C2)nc1Cl)C3c1sccc1F (centres unmarked) [Example 1.23.8, 2-((2-chloro-6-(3,3-difluoroazetidin-1-yl)pyridin-3-yl)oxy)-1-(5-(3-fluorothiophen-2-yl)-2-methyl-7,8-dihydro-[1,3,4]thiadiazolo[2′,3′:2,3]imidazo[4,5-c]pyridin-6(5H)-yl)ethanone]  6 nM
25. CCc1nc(N2CCCS2(=O)=O)ccc1OCC(=O)N1CCc2nc3sc(C)nn3c2[C@@H]1c1sc(C)nc1C [Example 1.68.8, (R)-1-(5-(2,4-dimethylthiazol-5-yl)-2-methyl-7,8-dihydro-[1,3,4]thiadiazolo[2′,3′:2,3]imidazo[4,5-c]pyridin-6(5H)-yl)-2-((6-(1,1-dioxidoisothiazolidin-2-yl)-2-ethylpyridin-3-yl)oxy)ethanone]  5 nM
